Legend:
Type in all cases: in vivo, Wistar rats
[1] = test system: NT-3-protein; experiment: NT-3 protein in rat cortex, hippocampus and spinal cord after i.p. treatment (immunoassay); conditions: 4 mg/kg i.p.
Protocol: (§1) Male adult Wistar rats (10-12 weeks) are killed by decapitation. The brains are removed, rapidly dissected with nuclease-free instruments on an ice-cold metal-plate, transferred to sterile cryotubes, and immediately shock-frozen by immersions in liquid nitrogen. Tissues are stored at −80° C. until further processing. Samples for the measurement of neurotrophin protein levels are prepared according to Lüesse et al., Exp. Brain Res. 1998: 119, 1-8. The homogenates are centrifuged at 12,500 g for 60 min, and the supernatants are used for NGF, BDNF and neurotrophin-3 (NT-3) quantification using specific ELISA assays.
To measure the immunoreactive NGF into the cortex, hippocampus and spinal cord of rats, a two-site ELISA is used (Weskamnp, G. and Otten, U. 1987, J. Neurochem. 48, 1779-1786). Anti-β (2.5S, 7S) NGF and anti-β (2.5S, 7S) NGF-β-gal (clone 27/21) (Boehringer Mannheim) are applied, and the NGF content in the samples is determined by comparison with an NGF standard curve (absorbance measurement at 595 nm using an ELISA reader, Dynatech MR 700). For quantification of BDNF and NT-3 levels, specific immunoassay systems are used according to the manufacturer's (Promega) protocols but modified by Heese, K. and Otten, U., 1998, J. Neurochem. 70, 699-707. Statistical evaluation of results is performed by applying analysis of variance, and the statistical error is the SEM. […]

[2] = test system: BDNF mRNA; experiment: BDNF mRNA in rat cortex, hippocampus and spinal cord after i.p. treatment (RT-PCR, ratio to S12); conditions: 3 and 10 mg/kg i.p., 6 and 24 hours after treatment
Protocol: as §1
(§2) Total cellular RNA is isolated according to the TRIZOL®-protocol (Gibco BRL, Eggenstein) as described by Lüesse et al. (see above).
(§3) Before being subjected to RT-PCR, the RNA extracts are supplemented with internal control RNA and optimized as described in detail by Heese K. et al., 1998, Neural Notes III, 21-23. Total RNA of each sample is first reverse-transcribed into cDNA which in turn is subjected to PCR amplification using primers specific for NGF and BDNF as described by Heese K et al., (see above).
(§4) For the quantification of neurotrophin transcripts, the ratios of densitometric scores for NGF or BDNF and S12 PCR products are calculated. Data are means±SEM of three independent experiments, each done in duplicate. N=4 to 6 for each group.

[3] = test system: NGF mRNA; experiment: NGF mRNA in rat cortex, hippocampus and spinal cord after i.p. treatment (RT-PCR, ratio to S12); conditions: 3 and 10 mg/kg i.p., 6 and 24 hours after treatment
Protocol: as §1, §2, §3, §4

SMILES | increase of NT-3-protein levels [1] | increase of BDNF mRNA [2] | increase of NGF mRNA [3]
NCC(CC(=O)O)c1ccc(Cl)cc1 (stereo not drawn) [compound C, β-(aminomethyl)-4-chlorobenze propanoic acid] | 3 fold | – | –
C[C@H](NC[C@H](O)CP(=O)(O)CC1CCCCC1)c1cccc(C(=O)O)c1 [compound A] | – | 2 to 3 fold | 2.0 to 2.5 fold

— patent publication US20060148707A1, “Use of ligands to GABA beta receptors” (priority 1999, published 2006)
